Data published in patent US20230390315A1, “COMPOSITIONS AND METHODS FOR TREATING ISCHEMIC CONDITIONS” (The Regents of the University of California, priority 2020, published 2023).

Columns and labels:
[1] = test system: bovine choroidal microvascular endothelial cells (BCEC); test: BCEC proliferation assay; format: cell-based
Method: Proliferation assays with BCECs and BRECs were performed. Log-phase growing BCECs or BRECs (passage <10) were trypsinized, re-suspended and seeded in 96-well plates (no coating) in low-glucose DMEM supplemented with 10% bovine calf serum, 2 mM glutamine, and antibiotics (growth medium), at a density of 1200-1500 cells per well in 200 μl volume. All reagents were added at the indicated final concentrations. […] Fluorescence was measured at 530 nm excitation wavelength and 590 nm emission wavelength. The experiments were repeated at least three times. […] On each 96-well plate, untreated and VEGF-treated (10/ng/ml) wells were included to monitor plate-to-plate variations. 20% methanol or 0.05% DMSO served as negative controls. 0.05% DMSO served as negative controls when Cas was tested in these cells. Human […] and human adult […] were split into Gelatin-coated 96 wells (2000 cells per well) in low glucose DMEM containing 10% FBS. 1200 cells/well was set up for proliferation assay in low glucose media containing FBS. […] HUVEC (p7-10) were grown on gelatin-coated plate until it reached 70-80% confluency. On the day of the assay, cells were dissociated with 0.05% trypsin, which was neutralized with 0.5% FBS-containing EBM. Cells were briefly spun and then re-suspended in 0.5% FBS-media. Cells were counted and plated in 96-well, 1000 cells/well. Triplicate wells were used for each treatment. Data were collected at day 3, and then cells were fixed in 4% paraformaldehyde for 15 min before adding crystal violet. Cell-covered areas were quantified after taking pictures by Image J software.

[2] = test system: ERK, AKT, mTOR, CREB, ACC and eNOS; test: Western blot of signal transduction pathways in BCECs; format: cell-based, bovine
Method: (§1) Cells were allowed to reach ˜80% confluency in 12-well plates. […] At various time points, plates were taken out of the incubator and kept on ice. Cell monolayers were first washed once with ice-cold PBS before lysis with 250 μl of Pierce RIPA buffer (ThermoFisher Scientific, Rockford, IL) or use 50 mM Tris-HCl (pH 7.6), 150 mM NaCl, 10% Glycerol, 1% NP-40 containing protease/Phosphatase inhibitor cocktail (100×) (Cell signaling, #5872). Lysates were collected and mixed with 4×Bolt LDS Sample Buffer (Novex, Carlsbad, CA) in the presence of Halt protease inhibitors and phosphatase inhibitor cocktail (ThermoFisher scientific, #NP0007). The samples were subjected to SDS-PAGE (Bolt 4-12% Bis-Tris Plus, Invitrogen) using Bolt MES SDS running buffer or NuPAGE 3-8% Tris-Acetate gel using Tris-Acetate SDS running buffer (Novex). HUVECs (passage 6-8) were plated in EBM-2 basal medium (Lonza) with 0.2% FBS. […] Equal amounts of protein lysates were analyzed by SDS-PAGE and blotted with the indicated antibodies. Proteins were transferred using Tris-Glycine buffer with 20% Methanol (Proteonomics grade) (Apex BioResearch Products). Membranes were first incubated with 5% milk in TBST, pH 7.6 (TEKnova, Hollister, CA), followed by blotting with primary and secondary antibodies. ECL anti-rabbit IgG, horseradish peroxidase linked whole antibody from donkey or sheep anti-mouse were obtained from GE Healthcare (UK limited). SuperSignal West Dura Extended Duration substrate was from ThermoFisher Scientific. In some cases, the same PVDF membranes were stripped by 8-min incubation in the Restore Plus Western Blot Stripping Buffer (ThermoFisher Scientific) to show total specific protein expression, followed by second stripping for β-actin expression.

[3] = test system: VEGFR2; test: Western blot of VEGFR2 molecular mass in BCECs and BRECs; format: cell-based, bovine
Method: Glycerol-free PNGase F was obtained from New England Biolabs (Ipswich, MA). Briefly, BCECs were lysed with NP-40 containing proteinase inhibitors (Thermo Scientific, Waltham, MA). Lysates were cleared at 4° C. at 5000 g for 25 mins. Total protein content was measured using Pierce BCA protein assay kit (ThermoScientific). […] of protein was mixed with 10× denaturing buffer and H2O to a total volume of […]. Glycoproteins were denatured at 100° C. for 10 mins, followed by adding Glycobuffer and PNGase F. The reaction was carried out at 37° C. for 2 hr.
as §1

[4] = test system: Bip, CHOP and ATF-6; test: Western blot of UPR responsive proteins in BCECs; format: cell-based, bovine
Method: as §1

[5] = test system: ischemic hindlimb; test: Hindlimb ischemia model and blood flow; format: in vivo, mouse; conditions: for blood perfusion ratio, of sham-treatment limbs: 3 weeks; for blood vessel density compared with H2O-treated control (CD31): 3 weeks post-ligation; for blood flow recovery (perfusion ratio): one week after surgery, 20% ManN oral or 1 mg/ml Kif ip every other day
Method: C57BL/6 male mice (6-8 weeks old) were subjected to unilateral hindlimb surgery under anesthesia with ketamine/xylazine cocktail. Briefly, the left femoral artery was separated from the vein and nerve, ligated proximally, and excised. The right hindlimb served as control. Blood flow was measured by using a laser Doppler perfusion imager (PeriScan PSI; Perimed). Ischemic and nonischemic limb perfusion was measured before and after surgery and 1, 2 and 3 weeks later. After surgery, mice were randomly allocated to different groups (8 mice for each group). 200 μl of 20% ManN was orally administrated every other day from 3rd day after surgery. 200 μl of 1 mg/ml Kif was administrated through ip injection every other day. H2O was used as a vehicle control. The final blood flow values were expressed as the ratio of ischemic to nonischemic hindlimb perfusion from the same animal. Quantification of blood vessel area was carried out as described.

[6] = test system: retinal vasculature; test: Retinal neovascularization after intravitreal injection; format: in vivo, mouse; conditions: intravitreal 500 ng ManN or Kif, 200 ng bFGF; seven days
Method: Assessment of retinal angiogenesis following intravitreal administration was done. Briefly, 6-8 weeks old C57BL/6 male mice were randomly allocated to different groups and anesthetized with ketamine/Xylazine cocktail. The indicated amounts of ManN, Kif or bFGF (R&D systems, AF-233-NA) in 1 μl of PBS and PBS vehicle control were injected intravitreally with a 33-gauge Hamilton syringe. Seven days after injection, animals were euthanized. Eyes were then enucleated and fixed in 4% paraformaldehyde (PFA) for 30 mins. Retinas were separated and stained with anti-CD31 immunofluorescence (IF) to evidence the vasculature. Evaluations were performed by an investigator blinded to the treatment. For CD31 IF, rat anti-mouse antibody (BD Biosciences, CAT #550274) was diluted 1:100 and incubated overnight at 4° C. After 4-hour incubation with the Alexa Fluor-488-conjugated anti-rat antibody (Life Technologies, A11006), whole mounts were imaged via the 488 nm channel using A1R Confocal STORM super-resolution system (Nikon). Quantification of vascular density in choroids and retina was carried out by Image J. Each experiment was repeated three times with similar results, and each treatment group consists of 5 individual samples.

O=C1N[C@@H]2[C@@H](O)[C@@H](O)[C@H](O)[C@@H](CO)N2C1=O [Kif, Kifunensine, reference compound]
BCEC proliferation with N-glycosylation inhibitors ([1]; absence or presence of 5 ng/ml VEGF): stimulated in a dose-dependent fashion | activation of ERK and AKT ([2]; 40 uM, BCECs): significantly activate | VEGFR2 molecular mass after glycosylation inhibitor treatment ([3]; 24 hours, SDS-PAGE): reduction in VEGFR2 molecular mass | Bip expression with glycosylation inhibitors ([4]; media without growth factors for 24 hours): dose-dependent induction of Bip expression | blood perfusion ratio, of sham-treatment limbs [5]: ~50% | blood vessel density compared with H2O-treated control (CD31) [5]: 1.8 times | blood flow recovery (perfusion ratio) [5]: ~47% | increase in density of retinal vessels compared to PBS group [6]: ~20%

N[C@H](C=O)[C@@H](O)[C@H](O)[C@H](O)CO [ManN, 2-Amino-2-deoxy-D-mannose]
dose range with significant stimulatory effects [1]: 5 to 500 µM | additivity with VEGF in promoting BCEC proliferation ([1]; 5 ng/ml VEGF): additive with VEGF | additivity with bFGF in promoting BCEC proliferation ([1]; 20 ng/ml bFGF): Additive effects | fold increase in fluorescence units upon AlamarBlue addition ([1]; 50 uM ManN and 5 ng/ml VEGF, compared to VEGF alone): 2.5-3 fold | maximal fold increase in EC-covered surface ([1]; ManN at 50 uM alone, crystal violet, FIG. 1A): ~6.5 fold | dependence of VEGFR2 mass decrease and BCEC proliferation stimulation on VEGFR2 signaling ([1]; experiments with VEGFR2 inhibitor axitinib): not dependent on VEGFR2 signaling | additivity between ManN and VEGF in glucose-free media ([1]; glucose-free media): abolished | concentration with significant cytotoxicity ([1]; glucose-free media, even in the presence of VEGF): 4 µM | dose-response of effects on BCEC proliferation ([1]; with or without VEGF): bell-shaped dose-response curve, with inhibition at higher concentrations | activation of ERK, AKT and CREB with both ManN and VEGF compared to ManN or VEGF alone [2]: enhancement in activation | activation of ERK, AKT, mTOR and CREB ([2]; 40 uM): activated | activation of eNOS and ACC ([2]; 40 uM): significantly activated | time to activation of eNOS and ACC ([2]; 40 uM): 10 to 30 min | time to stimulation of ERK, AKT and CREB after adding ManN ([2]; 40 uM): 10 to 30 min | duration of ManN effects on protein mass in the absence of exogenous ManN ([3]; BCECs): at least 8 hours | concentration at which VEGFR2 molecular mass shift starts ([3]; BCECs and BRECs): 40 µM | effect on apparent molecular mass of VEGFR2 ([3]; BCECs and BRECs): shifted significantly | new lower molecular weight VEGFR2 bands ([3]; BCECs, control major band ~230 KDa, minor ~210 KDa): 170-200 KDa | extent of loss of VEGFR2 glycosylation (PNGase F treatment) ([3]; ManN at uM concentrations): not all the glycosylation on VEGFR2 was abolished | reversibility of effects on VEGFR2 molecular mass after ManN removal ([3]; after 24 hours): completely reverse | synergy between ManN and VEGF in promoting Bip or CHOP expression [4]: No synergy | time at which accumulation of Bip is evident [4]: 24 h | time of CHOP induction ([4]; dose-dependent): about 6 hours | Bip expression ([4]; growing cells deprived of growth factor supply): significantly turn on Bip expression in a concentration-dependent manner | blood perfusion ratio, of sham-treatment limbs [5]: ~50% | blood vessel density compared with H2O-treated control (CD31) [5]: 2.3 times | blood flow recovery (perfusion ratio) [5]: about 40% | increase in density of retinal vessels compared to PBS group [6]: ~30%
